Laboratory results reported in ChEMBL document CHEMBL5244273, “Tuberculosis: An Overview of the Immunogenic Response, Disease Progression, and Medicinal Chemistry Efforts in the Last Decade toward the Development of Potential Drugs for Extensively Drug-Resistant Tuberculosis Strains” (J Med Chem, 2021).
≈ marks a conversion by molar mass, not a printed value.

Tests used:
Format in all cases: functional
[1] = system: Mycobacterium tuberculosis; assay: Antitubercular activity against extensively drug resistant Mycobacterium tuberculosis H37Rv assessed as inhibition of bacterial growth by alamar blue assay
[2] = system: Mycobacterium tuberculosis; assay: Antitubercular activity against multidrug resistant Mycobacterium tuberculosis H37Rv assessed as inhibition of bacterial growth by alamar blue assay
[3] = system: Mycobacterium tuberculosis; assay: Antitubercular activity against multidrug resistant Mycobacterium tuberculosis clinical isolate 6 by resazurin microtitre assay
[4] = system: Mycobacterium tuberculosis; assay: Antitubercular activity against multidrug resistant Mycobacterium tuberculosis clinical isolate 8 by resazurin microtitre assay
[5] = system: Mycobacterium tuberculosis; assay: Antitubercular activity against extensively drug resistant Mycobacterium tuberculosis clinical isolate 11 by resazurin microtitre assay
[6] = system: Mycobacterium tuberculosis; assay: Antitubercular activity against multidrug resistant Mycobacterium tuberculosis clinical isolate 3 by resazurin microtitre assay
[7] = system: Mycobacterium tuberculosis; assay: Antitubercular activity against extensively drug resistant Mycobacterium tuberculosis KMRC 0 0203-0 0197 by resazurin microtitre assay
[8] = system: Mycobacterium tuberculosis; assay: Antitubercular activity against multidrug resistant Mycobacterium tuberculosis clinical isolate 5 by resazurin microtitre assay
[9] = system: Mycobacterium tuberculosis; assay: Antitubercular activity against extensively drug resistant Mycobacterium tuberculosis clinical isolate 1 by resazurin microtitre assay
[10] = system: Mycobacterium tuberculosis; assay: Antitubercular activity against multidrug resistant Mycobacterium tuberculosis clinical isolate 1 by resazurin microtitre assay
[11] = system: Mycobacterium tuberculosis; assay: Antitubercular activity against multidrug resistant Mycobacterium tuberculosis clinical isolate 9 by resazurin microtitre assay
[12] = system: Mycobacterium tuberculosis; assay: Antitubercular activity against multidrug resistant Mycobacterium tuberculosis clinical isolate 11 by resazurin microtitre assay
[13] = system: Mycobacterium tuberculosis; assay: Antitubercular activity against extensively drug resistant Mycobacterium tuberculosis clinical isolate 3 by resazurin microtitre assay
[14] = system: Mycobacterium tuberculosis; assay: Antitubercular activity against extensively drug resistant Mycobacterium tuberculosis clinical isolate 6 by resazurin microtitre assay
[15] = system: Mycobacterium tuberculosis; assay: Antitubercular activity against extensively drug resistant Mycobacterium tuberculosis clinical isolate 10 by resazurin microtitre assay
[16] = system: Mycobacterium tuberculosis; assay: Antitubercular activity against extensively drug resistant Mycobacterium tuberculosis clinical isolate 8 by resazurin microtitre assay
[17] = system: Mycobacterium tuberculosis; assay: Antitubercular activity against multidrug resistant Mycobacterium tuberculosis clinical isolate 4 by resazurin microtitre assay
[18] = system: Mycobacterium tuberculosis; assay: Antitubercular activity against extensively drug resistant Mycobacterium tuberculosis clinical isolate 2 by resazurin microtitre assay
[19] = system: Mycobacterium tuberculosis; assay: Antitubercular activity against extensively drug resistant Mycobacterium tuberculosis clinical isolate 9 by resazurin microtitre assay
[20] = system: Mycobacterium tuberculosis; assay: Antitubercular activity against multidrug resistant Mycobacterium tuberculosis clinical isolate 2 by resazurin microtitre assay
[21] = system: Mycobacterium tuberculosis; assay: Antitubercular activity against extensively drug resistant Mycobacterium tuberculosis clinical isolate 5 by resazurin microtitre assay
[22] = system: Mycobacterium tuberculosis; assay: Antitubercular activity against extensively drug resistant Mycobacterium tuberculosis clinical isolate 7 by resazurin microtitre assay
[23] = system: Mycobacterium tuberculosis; assay: Antitubercular activity against multidrug resistant Mycobacterium tuberculosis clinical isolate 10 by resazurin microtitre assay
[24] = system: Mycobacterium tuberculosis; assay: Antitubercular activity against multidrug resistant Mycobacterium tuberculosis clinical isolate 7 by resazurin microtitre assay
[25] = system: Mycobacterium tuberculosis; assay: Antitubercular activity against extensively drug resistant Mycobacterium tuberculosis clinical isolate 4 by resazurin microtitre assay
[26] = system: Mycobacterium tuberculosis; assay: Antimycobacterial activity against isoniazid, streptomycin and ethionamide resistant Mycobacterium tuberculosis clinical isolate F
[27] = system: Mycobacterium tuberculosis; assay: Antimycobacterial activity against isoniazid and ethionamide resistant Mycobacterium tuberculosis clinical isolate E
[28] = system: Mycobacterium tuberculosis; assay: Antimycobacterial activity against isoniazid and ethionamide resistant Mycobacterium tuberculosis clinical isolate B
[29] = system: Mycobacterium tuberculosis; assay: Antimycobacterial activity against isoniazid, streptomycin, rifampicin, ethambutol and ethionamide resistant Mycobacterium tuberculosis clinical isolate G
[30] = system: Mycobacterium tuberculosis; assay: Antimycobacterial activity against isoniazid, streptomycin, rifampicin, ethambutol, ethionamide and ofloxacin resistant Mycobacterium tuberculosis clinical isolate H
[31] = system: Mycobacterium tuberculosis; assay: Antimycobacterial activity against isoniazid, streptomycin, ethambutol and ethionamide resistant Mycobacterium tuberculosis clinical isolate A
[32] = system: Mycobacterium tuberculosis; assay: Antimycobacterial activity against isoniazid and rifampicin resistant Mycobacterium tuberculosis clinical isolate D
[33] = system: Mycobacterium tuberculosis; assay: Antimycobacterial activity against isoniazid, streptomycin, and rifampicin resistant Mycobacterium tuberculosis clinical isolate C
[34] = system: Mycobacterium tuberculosis; assay: Antimycobacterial activity against Mycobacterium tuberculosis clinical isolate 383-0 harboring wild type gyrA and wild type gyrB
[35] = system: Mycobacterium tuberculosis; assay: Antimycobacterial activity against Mycobacterium tuberculosis clinical isolate 152-0 harboring wild type gyrA and wild type gyrB
[36] = system: Mycobacterium tuberculosis; assay: Antimycobacterial activity against Mycobacterium tuberculosis clinical isolate 581-17 harboring gyrA QRDR c270t (A90V) mutant and wild type gyrB
[37] = system: Mycobacterium tuberculosis; assay: Antimycobacterial activity against Mycobacterium tuberculosis clinical isolate 124-0 harboring wild type gyrA and wild type gyrB
[38] = system: Mycobacterium tuberculosis; assay: Antimycobacterial activity against Mycobacterium tuberculosis clinical isolate 427-18 harboring gyrA QRDR c270t (A90V) mutant and wild type gyrB
[39] = system: Mycobacterium tuberculosis; assay: Antimycobacterial activity against Mycobacterium tuberculosis clinical isolate 199-00 harboring gyrA QRDR c270t (A90V) mutant and wild type gyrB
[40] = system: Mycobacterium tuberculosis; assay: Antimycobacterial activity against Mycobacterium tuberculosis clinical isolate 742-0 harboring gyrA QRDR a282g (D94G) mutant and wild type gyrB
[41] = system: Mycobacterium tuberculosis; assay: Antimycobacterial activity against Mycobacterium tuberculosis H37Rv harboring wild type gyrA and wild type gyrB
[42] = system: Mycobacterium tuberculosis; assay: Antimycobacterial activity against Mycobacterium tuberculosis clinical isolate 666-0 harboring wild type gyrA and wild type gyrB
[43] = system: Mycobacterium tuberculosis; assay: Antimycobacterial activity against Mycobacterium tuberculosis clinical isolate 410-11 harboring wild type and wild type gyrB
[44] = system: Mycobacterium tuberculosis; assay: Antimycobacterial activity against Mycobacterium tuberculosis clinical isolate 775-0 harboring gyrA QRDR c270t (A90V) mutant and wild type gyrB
[45] = system: Mycobacterium tuberculosis; assay: Antimycobacterial activity against multidrug-resistant Mycobacterium tuberculosis H37Rv assessed as inhibition of bacterial growth by alamar blue assay
[46] = system: Mycobacterium tuberculosis; assay: Antimycobacterial activity against extensively-resistant Mycobacterium tuberculosis H37Rv assessed as inhibition of bacterial growth by alamar blue assay
[47] = system: Mycobacterium tuberculosis; assay: Antimycobacterial activity against isoniazid, rifampicin, ethambutol, pyrazinamide, streptomycin, capreomycin, amikacin, kanamycin, ofloxacin, and ethionamide resistant Mycobacterium tuberculosis clinical isolate incubated for 7 days by resazurin microtitre assay; conditions: 168 h, time 7 day
[48] = system: Mycobacterium tuberculosis; assay: Antimycobacterial activity against isoniazid resistant Mycobacterium tuberculosis clinical isolate incubated for 7 days by resazurin microtitre assay; conditions: 168 h, time 7 day
[49] = system: Mycobacterium tuberculosis; assay: Antimycobacterial activity against isoniazid, rifampicin, ethambutol, pyrazinamide, capreomycin, and ethionamide resistant Mycobacterium tuberculosis clinical isolate incubated for 7 days by resazurin microtitre assay; conditions: 168 h, time 7 day

Compound: O=C(Cc1ccccc1F)NNC(=O)c1ccncc1
- MIC [1]: 250 µg/mL (≈ 915 µM)
- MIC [2]: 62.5 µg/mL (≈ 229 µM)

Compound: CCN(CC)CCOc1c(C(=O)OC)c2c3c(oc2c2ccccc12)C(=O)c1ccccc1C3=O
- MIC [3]: 0.02 µg/mL (≈ 0.0424 µM)
- MIC [4]: 0.39 µg/mL (≈ 0.827 µM)
- MIC [5]: 0.19 µg/mL (≈ 0.403 µM)
- MIC [6]: 0.19 µg/mL (≈ 0.403 µM)
- MIC50 [7]: 0.19 µg/mL (≈ 0.403 µM)
- MIC [8]: 0.19 µg/mL (≈ 0.403 µM)
- MIC [9]: 0.02 µg/mL (≈ 0.0424 µM)
- MIC [10]: 0.19 µg/mL (≈ 0.403 µM)
- MIC [11]: 0.02 µg/mL (≈ 0.0424 µM)
- MIC [12]: 0.39 µg/mL (≈ 0.827 µM)
- MIC [13]: 0.19 µg/mL (≈ 0.403 µM)
- MIC [14]: 0.19 µg/mL (≈ 0.403 µM)
- MIC [15]: 0.02 µg/mL (≈ 0.0424 µM)
- MIC [16]: 0.19 µg/mL (≈ 0.403 µM)
- MIC [17]: 0.19 µg/mL (≈ 0.403 µM)
- MIC [18]: 0.02 µg/mL (≈ 0.0424 µM)
- MIC [19]: 0.19 µg/mL (≈ 0.403 µM)
- MIC [20]: 0.02 µg/mL (≈ 0.0424 µM)
- MIC [21]: 0.19 µg/mL (≈ 0.403 µM)
- MIC [22]: 0.19 µg/mL (≈ 0.403 µM)
- MIC [23]: 0.02 µg/mL (≈ 0.0424 µM)
- MIC [24]: 0.02 µg/mL (≈ 0.0424 µM)
- MIC [25]: 0.19 µg/mL (≈ 0.403 µM)

Compound: Oc1ccc(-c2nnc(S)o2)cc1
- MIC [26]: 8 µg/mL (≈ 41.2 µM)
- MIC [27]: 16 µg/mL (≈ 82.4 µM)
- MIC [28]: 8 µg/mL (≈ 41.2 µM)
- MIC [29]: > 32 µg/mL
- MIC [30]: 2 µg/mL (≈ 10.3 µM)
- MIC [31]: > 32 µg/mL
- MIC [32]: > 32 µg/mL
- MIC [33]: 16 µg/mL (≈ 82.4 µM)

Compound: CC(C)(C)n1cc(C(=O)O)c(=O)c2cc(F)c(-c3cccnc3)cc21
- MIC [34]: 2 µg/mL (≈ 5.88 µM)
- MIC [35]: 4 µg/mL (≈ 11.8 µM)
- MIC [36]: 2 µg/mL (≈ 5.88 µM)
- MIC [37]: 1 µg/mL (≈ 2.94 µM)
- MIC [38]: 1 µg/mL (≈ 2.94 µM)
- MIC [39]: 4 µg/mL (≈ 11.8 µM)
- MIC [40]: 32 µg/mL (≈ 94 µM)
- MIC [41]: 0.5 µg/mL (≈ 1.47 µM)
- MIC [42]: 4 µg/mL (≈ 11.8 µM)
- MIC [43]: 4 µg/mL (≈ 11.8 µM)
- MIC [44]: 2 µg/mL (≈ 5.88 µM)

Compound: CC(C)(C)n1cc(C(=O)O)c(=O)c2cc(F)c(-c3ccc(O)cc3)cc21
- MIC [34]: 2 µg/mL (≈ 5.63 µM)
- MIC [35]: 2 µg/mL (≈ 5.63 µM)
- MIC [36]: 8 µg/mL (≈ 22.5 µM)
- MIC [37]: 1 µg/mL (≈ 2.81 µM)
- MIC [38]: 1 µg/mL (≈ 2.81 µM)
- MIC [39]: 2 µg/mL (≈ 5.63 µM)
- MIC [40]: 2 µg/mL (≈ 5.63 µM)
- MIC [41]: 1 µg/mL (≈ 2.81 µM)
- MIC [42]: 2 µg/mL (≈ 5.63 µM)
- MIC [43]: 2 µg/mL (≈ 5.63 µM)
- MIC [44]: 2 µg/mL (≈ 5.63 µM)

Compound: Cc1cc(O)n2nc(Nc3ccc(Cl)c(Cl)c3)c(C(N)=O)c2n1
- MIC [45]: 12.5 µg/mL (≈ 35.5 µM)
- MIC [46]: 50 µg/mL (≈ 142 µM)

Compound: Cc1ccc(NC(=O)c2c(Nc3ccc(Cl)cc3)nn3c(O)cc(C)nc23)cc1
- MIC [45]: 6.25 µg/mL (≈ 15.3 µM)
- MIC [46]: > 100 µg/mL

Compound: CC(=O)N1/C(=C/c2ccc(-c3ccc(C)cc3)cc2)C(=O)c2ccccc21
- MIC [47]: 17.7 µM (≈ 6.26 µg/mL)
- MIC [48]: 17.7 µM (≈ 6.26 µg/mL)
- MIC [49]: 17.7 µM (≈ 6.26 µg/mL)

Compound: CC(=O)N1/C(=C/c2ccc(-c3ccccc3)cc2)C(=O)c2ccccc21
- MIC [47]: 12.3 µM (≈ 4.17 µg/mL)
- MIC [48]: 12.3 µM (≈ 4.17 µg/mL)
- MIC [49]: 12.3 µM (≈ 4.17 µg/mL)
